# Assay results: patent publication USRE48097E1, “Cephem compounds, their production and use” (priority 2015, dated 2020)
# Where two headings read alike, the source gives them in different places.
# Tests used:
# E. cloacae 2689 = experiment: MIC against E. cloacae 2689; format: cell-based; settings: Table 3, E. cloacae 2689, KPC-2
# Procedure: (§1) As shown, the foregoing composition was tested for minimum inhibitory concentration (MIC, μg/mL) against bacteria listed in Tables 2-3.
# S. aureus 3136 = experiment: MIC against S. aureus 3136; format: cell-based; settings: Table 2, S. aureus 3136, MSSA
# Excerpt: (§2) Without limitation, the present cephem compounds alone, or in combination with one or more β-lactamase inhibitors, may provide improved antibacterial efficacy, particularly in antibiotic-resistant bacterial strains. It is believed that the present compounds may be structurally different from known compounds and, as a result, may be more basic in nature. It is an advantage that the present compounds may extend the spectrum of effective bacterial compounds, particularly against previously-resistant bacteria (e.g. ESKAPE organisms), and/or gram negative bacteria, without significant side effects. In a preferred embodiment, the present cephem compound may comprise reference compound ceftazidime, which may be used alone, or in combination with one or more β-lactamase inhibitors, such as NXL-104. As shown, the foregoing composition was tested for minimum inhibitory concentration (MIC, μg/mL) against bacteria listed in Tables 2-3.
# S. pneumoniae 2389 = experiment: MIC against S. pneumoniae 2389; format: cell-based; settings: Table 2, S. pneumoniae 2389, Pen R
# Excerpt: as §2
# C. freundii 2487 = experiment: MIC against C. freundii 2487; format: cell-based; settings: Table 2, C. freundii 2487, Caz R, IMP S
# Excerpt: as §2
# K. pneumoniae 4107 = experiment: MIC against K. pneumoniae 4107; format: cell-based; settings: K. pneumoniae 4107, KPC-2, TEM-1, SHV-11
# Procedure: as §1
# K. pneumoniae 4104 = experiment: MIC against K. pneumoniae 4104; format: cell-based; settings: K. pneumoniae 4104, KPC-3, TEM-1
# Procedure: as §1
# S. aureus3137 = experiment: MIC against S. aureus3137; format: cell-based, S. aureus; settings: Table 2, S. aureus3137, MSSA
# Excerpt: as §2
# S. aureus 3144 = experiment: MIC against S. aureus 3144; format: cell-based; settings: Table 2, S. aureus 3144, MSSA
# Excerpt: as §2
# K. pneumoniae 4088 = experiment: MIC against K. pneumoniae 4088; format: cell-based; settings: Table 3, K. pneumoniae 4088, KPC-3
# Procedure: as §1
# E. coli 2668 = experiment: MIC against E. coli 2668; format: cell-based; settings: Table 2, E. coli 2668, OXA-48
# Excerpt: as §2
# K. baumanii 2579 = experiment: MIC against K. baumanii 2579; format: cell-based; settings: Table 2, K. baumanii 2579, OXA-25
# Excerpt: as §2
# E. coli 4103 = experiment: MIC against E. coli 4103; format: cell-based; settings: Table 3, E. coli 4103, KPC-2, TEM-1, CMY-type
# Procedure: as §1
# [1] = test system: S. pneumoniae ATCC 700673; experiment: MIC against S. pneumoniae ATCC 700673; format: cell-based; settings: Table 2, S. pneumoniae ATCC 700673, Pen R
# Excerpt: as §2
# E. coli 4102 = experiment: MIC against E. coli 4102; format: cell-based; settings: Table 2, E. coli 4102, CTX-M-14
# Excerpt: as §2
# [2] = Enterobacter cloacae, alone, read-out: MIC
# [3] = Staphylococcus aureus, alone, read-out: MIC
# [4] = Streptococcus pneumoniae, alone, read-out: MIC
# [5] = Citrobacter freundii, alone, read-out: MIC
# [6] = Klebsiella pneumoniae, 4107, Table 2, alone, read-out: MIC
# [7] = Klebsiella pneumoniae, 4107, Table 3, alone, read-out: MIC
# [8] = Table 2, in combination with NXL-104
# [9] = Table 3, in combination with NXL-104
# [10] = Klebsiella pneumoniae, 4104, Table 2, alone, read-out: MIC
# [11] = Klebsiella pneumoniae, 4104, Table 3, alone, read-out: MIC
# [12] = Klebsiella pneumoniae, alone, read-out: MIC
# [13] = Escherichia coli, alone, read-out: MIC
# [14] = Streptococcus pneumoniae, ATCC700673, alone, read-out: MIC
Structure (SMILES),MIC (E. cloacae 2689; [2]),MIC (E. cloacae 2689; in combination with NXL-104),MIC (S. aureus 3136; [3]),MIC (S. aureus 3136; in combination with NXL-104),MIC (S. pneumoniae 2389; [4]),MIC (S. pneumoniae 2389; in combination with NXL-104),MIC (C. freundii 2487; [5]),MIC (C. freundii 2487; in combination with NXL-104),MIC (K. pneumoniae 4107; [8]),MIC (K. pneumoniae 4107; [9]),MIC (K. pneumoniae 4104; [8]),MIC (K. pneumoniae 4104; [9]),MIC (S. aureus3137; in combination with NXL-104),MIC (S. aureus 3144; in combination with NXL-104),MIC (K. pneumoniae 4088; in combination with NXL-104),MIC (E. coli 2668; in combination with NXL-104),MIC (K. baumanii 2579; in combination with NXL-104),MIC (E. coli 4103; in combination with NXL-104),MIC ([1]; in combination with NXL-104),MIC (E. coli 4102; in combination with NXL-104),also measured
"CC(C)(O/N=C(\C(=O)N[C@@H]1C(=O)N2C(C(=O)[O-])=C(C[n+]3ccc4c(ccn4Cc4cc(C(=N)N)co4)c3)CS[C@H]12)c1csc(N)n1)C(=O)O [Example 6, (6R,7R)-7-{[(2Z)-2-(2-Amino-1,3-thiazol-4-yl)-2-{[(2-carboxypropan-2-yl)oxy]imino}acetyl]amino}-3-({1-[(4-carbamimidoylfuran-2-yl)methyl]-1H-pyrrolo[3,2-c]pyridin-5-ium-5-yl}methyl)-8-oxo-5-thia-1-azabicyclo[4.2.0]oct-2-ene-2-carboxylate]",16 µg/mL,1 µg/mL,4 µg/mL,4.00 µg/mL,2 µg/mL,2.00 µg/mL,8 µg/mL,1.00 µg/mL,2.00 µg/mL,1 µg/mL,2.00 µg/mL,0.5 µg/mL,8.00 µg/mL,8.00 µg/mL,2 µg/mL,0.12 µg/mL,16.00 µg/mL,4 µg/mL,2.00 µg/mL,0.12 µg/mL,"MIC (K. pneumoniae 4107; [6]): 32 µg/mL; MIC (K. pneumoniae 4107; [7]): 16 µg/mL; MIC (K. pneumoniae 4104; [10]): 32 µg/mL; MIC (K. pneumoniae 4104; [11]): 32 µg/mL; MIC (S. aureus3137; [3]): 32 µg/mL; MIC (S. aureus 3144; [3]): 8 µg/mL; MIC (K. pneumoniae 4088; [12]): > 32 µg/mL; MIC (E. coli 2668; [13]): 0.5 µg/mL; MIC (K. baumanii 2579; alone, read-out: MIC): > 32 µg/mL; MIC (E. coli 4103; [13]): > 32 µg/mL; MIC [1, 14]: 2 µg/mL; MIC (E. coli 4102; [13]): 2 µg/mL"
"CC(C)(O/N=C(\C(=O)N[C@@H]1C(=O)N2C(C(=O)[O-])=C(C[n+]3ccc4c(ccn4Cc4cc(C(=N)N)cs4)c3)CS[C@H]12)c1csc(N)n1)C(=O)O [Example 5, (6R,7R)-7-{[(2Z)-2-(2-Amino-1,3-thiazol-4-yl)-2-{[(2-carboxypropan-2-yl)oxy]imino}acetyl]amino}-3-({1-[(4-carbamimidoylthiophen-2-yl)methyl]-1H-pyrrolo[3,2-c]pyridin-5-ium-5-yl}methyl)-8-oxo-5-thia-1-azabicyclo[4.2.0]oct-2-ene-2-carboxylate]",16 µg/mL,0.5 µg/mL,2 µg/mL,2.00 µg/mL,2 µg/mL,1.00 µg/mL,32 µg/mL,1.00 µg/mL,2.00 µg/mL,1 µg/mL,2.00 µg/mL,0.5 µg/mL,4.00 µg/mL,4.00 µg/mL,2 µg/mL,≤0.06 µg/mL,8.00 µg/mL,4 µg/mL,2.00 µg/mL,≤0.06 µg/mL,"MIC (K. pneumoniae 4107; [6]): 32 µg/mL; MIC (K. pneumoniae 4107; [7]): 16 µg/mL; MIC (K. pneumoniae 4104; [10]): 32 µg/mL; MIC (K. pneumoniae 4104; [11]): 16 µg/mL; MIC (S. aureus3137; [3]): 32 µg/mL; MIC (S. aureus 3144; [3]): 4 µg/mL; MIC (K. pneumoniae 4088; [12]): 32 µg/mL; MIC (E. coli 2668; [13]): 1 µg/mL; MIC (K. baumanii 2579; alone, read-out: MIC): > 32 µg/mL; MIC (E. coli 4103; [13]): > 32 µg/mL; MIC [1, 14]: 2 µg/mL; MIC (E. coli 4102; [13]): 1 µg/mL"
"CC(C)(O/N=C(\C(=O)N[C@@H]1C(=O)N2C(C(=O)[O-])=C(C[n+]3ccc4n3CCN4Cc3ccc(C(=N)N)cc3)CS[C@H]12)c1csc(N)n1)C(=O)O [Example 2, (6R,7R)-7-{[(2Z)-2-(2-Amino-1,3-thiazol-4-yl)-2-{[(2-carboxypropan-2-yl)oxy]imino}acetyl]amino}-3-{[1-(4-carbamimidoylbenzyl)-2,3-dihydro-1H-imidazo[1,2-b]pyrazol-5-ium-5-yl]methyl}-8-oxo-5-thia-1-azabicyclo[4.2.0]oct-2-ene-2-carboxylate]",8 µg/mL,0.5 µg/mL,2 µg/mL,2.00 µg/mL,8 µg/mL,8.00 µg/mL,8 µg/mL,1.00 µg/mL,4.00 µg/mL,2 µg/mL,2.00 µg/mL,2 µg/mL,32.00 µg/mL,4.00 µg/mL,4 µg/mL,0.25 µg/mL,32.00 µg/mL,8 µg/mL,8.00 µg/mL,0.12 µg/mL,"MIC (K. pneumoniae 4107; [6]): 16 µg/mL; MIC (K. pneumoniae 4107; [7]): > 32 µg/mL; MIC (K. pneumoniae 4104; [10]): 8 µg/mL; MIC (K. pneumoniae 4104; [11]): 32 µg/mL; MIC (S. aureus3137; [3]): 32 µg/mL; MIC (S. aureus 3144; [3]): 4 µg/mL; MIC (K. pneumoniae 4088; [12]): > 32 µg/mL; MIC (E. coli 2668; [13]): 0.5 µg/mL; MIC (K. baumanii 2579; alone, read-out: MIC): > 32 µg/mL; MIC (E. coli 4103; [13]): > 32 µg/mL; MIC [1, 14]: 8 µg/mL; MIC (E. coli 4102; [13]): 1 µg/mL"
"CC(C)(O/N=C(\C(=O)N[C@@H]1C(=O)N2C(C(=O)[O-])=C(C[n+]3ccccc3)CS[C@H]12)c1csc(N)n1)C(=O)O [CAZ, ceftazidime, reference compound]",,2 µg/mL,,8.00 µg/mL,,16.00 µg/mL,,8.00 µg/mL,8.00 µg/mL,4 µg/mL,8.00 µg/mL,2 µg/mL,32.00 µg/mL,16.00 µg/mL,8 µg/mL,0.50 µg/mL,>32 µg/mL,16 µg/mL,8.00 µg/mL,0.25 µg/mL,"MIC (E. cloacae 2689; alone): >32 µg/mL; MIC (S. aureus 3136; alone): 8.00 µg/mL; MIC (S. pneumoniae 2389; alone): 16.00 µg/mL; MIC (C. freundii 2487; alone): 16.00 µg/mL; MIC (K. pneumoniae 4107; Table 2, alone): 32.00 µg/mL; MIC (K. pneumoniae 4107; Table 3, alone): >32 µg/mL; MIC (K. pneumoniae 4104; Table 2, alone): 32.00 µg/mL; MIC (K. pneumoniae 4104; Table 3, alone): >32 µg/mL; MIC (S. aureus3137; alone): 32.00 µg/mL; MIC (S. aureus 3144; alone): 16.00 µg/mL; MIC (K. pneumoniae 4088; alone): >32 µg/mL; MIC (E. coli 2668; alone): 1.00 µg/mL; MIC (K. baumanii 2579; alone): >32 µg/mL; MIC (E. coli 4103; alone): >32 µg/mL; MIC ([1]; alone): 16.00 µg/mL; MIC (E. coli 4102; alone): 1.00 µg/mL"
